This is an account of results in patent US6403637B1, “Methods of modulating matrix metalloproteinase activity and uses thereof” (priority 1999, dated 2002).

A value given as a limit tells only on which side of the number the result lay.

Assay [1] deals with UMR 106-01 rat osteosarcoma cells. As to the kind of experiment: Binding of 125I-labeled proteinases to UMR 106-01 cells. As to conditions: for Specific binding: 125I-labeled ligand 8 nM, means ± SEM for triplicate wells; for binding to UMR cells (in words): 125I-labeled protein, direct binding.
The test system of assay [2] is UMR 106-01 cells. As to the kind of experiment: Competition for 125I collagenase-3 binding in UMR 106-01 cells. Also on record: species or system rat. The note with it: for percent of mouse collagenase-3 binding, UMR-106-01: competitor at 200-, 400- and 800-fold excess over 125I mouse collagenase-3, ± S.E.M., seven pooled experiments; for competition efficiency compared to full-length collagenase-3: 125I mouse collagenase-3; for competition for 125I mouse collagenase-3 binding (in words): compared to full-length MMP-13. Here is the method:
(§1) For all binding experiments, cells were seeded into 2.0 cm^2 wells. After the cells reached approximately 95% confluence, the medium was replaced with fresh medium containing 1 mg/ml BSA and the cells were assayed for binding 4 h later. The cells were first washed with maintenance medium, then incubated in the same medium with 0.01% Tween 80 containing ^125I-rat collagenase-3 or other iodinated ligands at 4° C. for 2 h. Non-specific binding was assessed by adding a 50-100-fold excess of cold ligand to half the wells, while an equivalent volume of buffer was added to the remaining wells. After incubation, the wells were washed three times with ice-cold MEM (0.5 ml). The cells were then lysed with 500 μl of 1 M NaOH and the lysates were counted on a gamma counter. Protein labeling with ^125I was done using the chloramine T method (Greenwood et al., 1963, Biochem. J. 89:114). The proteins had specific activities ranging from 9 to 27 μCi/μg.
(§2) These proteins were used as competitors in a series of binding assays in UMR cells using ^125I mouse collagenase-3. Radioactive labeling and binding assays were performed as in Example 1.

Assay [3] has as its system MEF-2 (LRP null) mouse embryo fibroblasts. Briefly: Competition for 125I collagenase-3 binding in MEF-2 (LRP null) cells. As to conditions: for percent of mouse collagenase-3 binding, MEF-2 (LRP null): competitor at 200-, 400- and 800-fold excess over 125I mouse collagenase-3, ± S.E.M., triplicate wells; for competition for receptor binding in MEF-2 cells (in words): compared to MEF-1 cells. Here is the method: as §1
(§3) In order to exclude the possibility that the collagenase-3 receptor is the low density lipoprotein receptor-related protein, two cell lines of mouse embryo fibroblasts were used: wild-type (MEF-1) and low density lipoprotein receptor-related protein-null (MEF-2) (both provided by Dr. Joachim Herz). These cells were cultured in Dulbecco's MEM with 10% FBS, 10 units penicillin/ml, 10 μg streptomycin/ml.
as §2
(§4) This region thus appears to be the high-affinity binding domain recognized by the collagenase-3 receptor, and the other two domains (SEQ ID's NO:1 and 3) may be recognized by the lower-affinity low density lipoprotein receptor-related protein or may alternatively stabilize the interaction with the collagenase-3 receptor. To investigate the contribution of each receptor, two mouse embryo fibroblast (MEF) cell lines were utilized. The MEF-1 cell line is known to express both the collagenase-3 receptor and the low density lipoprotein receptor-related protein, while the MEF-2 cell line has been rendered low density lipoprotein receptor-related protein-null. […] This hypothesis is confirmed by the data on Table 4.

In assay [4] the test system is MEF-1 mouse embryo fibroblasts. As to the kind of experiment: Competition for 125I collagenase-3 binding in MEF-1 cells. The note with it: competitor at 200-, 400- and 800-fold excess over 125I mouse collagenase-3; ± S.E.M., triplicate wells. Here is the method:
as §1, §3, §2, §4

The test system of assay [5] is UMR 106-01 cells. As to the kind of experiment: Internalization assay in UMR 106-01 cells. It counts as cell-based, rat. Here is the method:
Although the low density lipoprotein receptor-related protein is not required for rat collagenase-3 binding to the cell, it might be required for ligand internalization. Therefore, internalization assays were performed with ^125I-rat collagenase-3 using MEF-1 and MEF-2 cells as follows. After binding 125I-rat labeled proteins as above, the cells were washed three times with cold modified Eagle's media (0.5 ml) to remove unbound ligand. The cells were then warmed to 37° C. by the addition of prewarmed modified Eagle's media (0.25 ml), and incubated at 37° C. for selected intervals. At each time point, the media were collected, and the cells were washed once with ice-cold MEM, then incubated with 0.25% Pronase®-E in modified Eagle's media for 15 min at 4° C. to strip cell surface proteins. The cell suspension was then centrifuged, and the radioactivity associated with cell pellets (defining internalized ^125I-proteins) was measured at each time point.
It is known that RAP inhibits internalization of ligands by the low density lipoprotein receptor-related protein (Kounnas et al., 1996, J. Biol. Chem 271:6523). Therefore, internalization assays were performed using ^125I-labeled rat collagenase-3 as a ligand and receptor-associated protein as a competitor. Human receptor-associated protein from the pGEX-receptor-associated protein expression vector (provided by Dr. Joachim Herz, University of Texas Southwestern Medical Center, Dallas, Tex.) was expressed in bacteria and prepared as described in Herz et al., 1991, J. Biol. Chem. 266:21232.
To investigate the mechanism by which RAP regulates internalization of collagenase-3, an experiment was performed where excess unlabeled RAP or rat collagenase-3 was prebound to UMR 106-01 cells. Binding and internalization of ^125I-labeled rat collagenase-3 and RAP were then allowed to proceed.

Assay [6] concerns the target T1, low density lipoprotein receptor-related protein (Rattus norvegicus, UniProt G3V928).
T1 construct: endogenous in cells; host or cells: UMR 106-01 rat osteosarcoma cells
Briefly: Scatchard analysis of 125I-mMMP-13 binding to UMR 106-01 cells, lower affinity site. The method, then:
as §1
(§5) The recombinant mouse MMP-13 has essentially equivalent catalytic, kinetic, and binding activity as the rat MMP-13 homolog utilized in Example 1.

In assay [7] the target is T2, collagenase-3 receptor (Rattus norvegicus, UniProt Q4TU93).
T2 construct: endogenous in cells; host or cells: UMR 106-01 rat osteosarcoma cells
T2 sequence (Q4TU93 31-1480): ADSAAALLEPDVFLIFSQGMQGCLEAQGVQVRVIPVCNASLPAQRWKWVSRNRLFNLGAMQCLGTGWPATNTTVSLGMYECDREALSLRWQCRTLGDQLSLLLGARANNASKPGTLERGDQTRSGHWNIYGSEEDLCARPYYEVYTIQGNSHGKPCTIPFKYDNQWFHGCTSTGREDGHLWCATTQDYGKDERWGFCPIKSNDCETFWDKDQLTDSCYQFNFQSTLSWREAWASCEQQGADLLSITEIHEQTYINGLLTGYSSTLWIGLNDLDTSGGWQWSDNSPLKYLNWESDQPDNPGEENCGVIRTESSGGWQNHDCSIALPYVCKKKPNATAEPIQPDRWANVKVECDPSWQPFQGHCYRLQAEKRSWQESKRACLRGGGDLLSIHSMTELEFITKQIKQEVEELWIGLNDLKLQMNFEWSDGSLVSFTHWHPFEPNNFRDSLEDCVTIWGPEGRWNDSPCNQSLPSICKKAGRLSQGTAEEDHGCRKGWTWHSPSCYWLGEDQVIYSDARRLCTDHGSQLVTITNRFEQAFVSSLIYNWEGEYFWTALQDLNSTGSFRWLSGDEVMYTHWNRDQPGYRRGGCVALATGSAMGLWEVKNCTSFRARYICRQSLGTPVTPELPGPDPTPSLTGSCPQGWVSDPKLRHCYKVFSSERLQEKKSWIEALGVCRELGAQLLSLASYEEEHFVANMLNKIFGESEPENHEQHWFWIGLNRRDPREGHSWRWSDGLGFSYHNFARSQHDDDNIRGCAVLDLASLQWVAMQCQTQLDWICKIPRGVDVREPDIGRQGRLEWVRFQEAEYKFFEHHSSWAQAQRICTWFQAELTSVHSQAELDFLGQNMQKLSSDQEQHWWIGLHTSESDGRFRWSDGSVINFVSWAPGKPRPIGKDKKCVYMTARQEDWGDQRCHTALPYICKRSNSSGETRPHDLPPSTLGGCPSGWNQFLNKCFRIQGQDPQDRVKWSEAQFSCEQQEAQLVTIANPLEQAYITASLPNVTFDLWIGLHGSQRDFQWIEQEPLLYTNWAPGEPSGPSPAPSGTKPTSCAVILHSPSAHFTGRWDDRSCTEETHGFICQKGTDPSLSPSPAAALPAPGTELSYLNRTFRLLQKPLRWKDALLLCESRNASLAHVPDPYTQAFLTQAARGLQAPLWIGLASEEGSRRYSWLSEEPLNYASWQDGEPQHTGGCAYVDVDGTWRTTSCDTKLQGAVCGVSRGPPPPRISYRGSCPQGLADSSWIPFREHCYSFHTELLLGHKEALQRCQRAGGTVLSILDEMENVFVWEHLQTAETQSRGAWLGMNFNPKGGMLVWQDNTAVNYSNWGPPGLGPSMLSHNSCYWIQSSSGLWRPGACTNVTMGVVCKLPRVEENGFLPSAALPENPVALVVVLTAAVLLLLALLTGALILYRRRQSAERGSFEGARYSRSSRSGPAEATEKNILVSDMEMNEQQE
As to the kind of experiment: Scatchard analysis of 125I-mMMP-13 binding to UMR 106-01 cells, high affinity site. The method, then:
as §1, §5

T1 sequence (G3V928 20-3944 limits assumed): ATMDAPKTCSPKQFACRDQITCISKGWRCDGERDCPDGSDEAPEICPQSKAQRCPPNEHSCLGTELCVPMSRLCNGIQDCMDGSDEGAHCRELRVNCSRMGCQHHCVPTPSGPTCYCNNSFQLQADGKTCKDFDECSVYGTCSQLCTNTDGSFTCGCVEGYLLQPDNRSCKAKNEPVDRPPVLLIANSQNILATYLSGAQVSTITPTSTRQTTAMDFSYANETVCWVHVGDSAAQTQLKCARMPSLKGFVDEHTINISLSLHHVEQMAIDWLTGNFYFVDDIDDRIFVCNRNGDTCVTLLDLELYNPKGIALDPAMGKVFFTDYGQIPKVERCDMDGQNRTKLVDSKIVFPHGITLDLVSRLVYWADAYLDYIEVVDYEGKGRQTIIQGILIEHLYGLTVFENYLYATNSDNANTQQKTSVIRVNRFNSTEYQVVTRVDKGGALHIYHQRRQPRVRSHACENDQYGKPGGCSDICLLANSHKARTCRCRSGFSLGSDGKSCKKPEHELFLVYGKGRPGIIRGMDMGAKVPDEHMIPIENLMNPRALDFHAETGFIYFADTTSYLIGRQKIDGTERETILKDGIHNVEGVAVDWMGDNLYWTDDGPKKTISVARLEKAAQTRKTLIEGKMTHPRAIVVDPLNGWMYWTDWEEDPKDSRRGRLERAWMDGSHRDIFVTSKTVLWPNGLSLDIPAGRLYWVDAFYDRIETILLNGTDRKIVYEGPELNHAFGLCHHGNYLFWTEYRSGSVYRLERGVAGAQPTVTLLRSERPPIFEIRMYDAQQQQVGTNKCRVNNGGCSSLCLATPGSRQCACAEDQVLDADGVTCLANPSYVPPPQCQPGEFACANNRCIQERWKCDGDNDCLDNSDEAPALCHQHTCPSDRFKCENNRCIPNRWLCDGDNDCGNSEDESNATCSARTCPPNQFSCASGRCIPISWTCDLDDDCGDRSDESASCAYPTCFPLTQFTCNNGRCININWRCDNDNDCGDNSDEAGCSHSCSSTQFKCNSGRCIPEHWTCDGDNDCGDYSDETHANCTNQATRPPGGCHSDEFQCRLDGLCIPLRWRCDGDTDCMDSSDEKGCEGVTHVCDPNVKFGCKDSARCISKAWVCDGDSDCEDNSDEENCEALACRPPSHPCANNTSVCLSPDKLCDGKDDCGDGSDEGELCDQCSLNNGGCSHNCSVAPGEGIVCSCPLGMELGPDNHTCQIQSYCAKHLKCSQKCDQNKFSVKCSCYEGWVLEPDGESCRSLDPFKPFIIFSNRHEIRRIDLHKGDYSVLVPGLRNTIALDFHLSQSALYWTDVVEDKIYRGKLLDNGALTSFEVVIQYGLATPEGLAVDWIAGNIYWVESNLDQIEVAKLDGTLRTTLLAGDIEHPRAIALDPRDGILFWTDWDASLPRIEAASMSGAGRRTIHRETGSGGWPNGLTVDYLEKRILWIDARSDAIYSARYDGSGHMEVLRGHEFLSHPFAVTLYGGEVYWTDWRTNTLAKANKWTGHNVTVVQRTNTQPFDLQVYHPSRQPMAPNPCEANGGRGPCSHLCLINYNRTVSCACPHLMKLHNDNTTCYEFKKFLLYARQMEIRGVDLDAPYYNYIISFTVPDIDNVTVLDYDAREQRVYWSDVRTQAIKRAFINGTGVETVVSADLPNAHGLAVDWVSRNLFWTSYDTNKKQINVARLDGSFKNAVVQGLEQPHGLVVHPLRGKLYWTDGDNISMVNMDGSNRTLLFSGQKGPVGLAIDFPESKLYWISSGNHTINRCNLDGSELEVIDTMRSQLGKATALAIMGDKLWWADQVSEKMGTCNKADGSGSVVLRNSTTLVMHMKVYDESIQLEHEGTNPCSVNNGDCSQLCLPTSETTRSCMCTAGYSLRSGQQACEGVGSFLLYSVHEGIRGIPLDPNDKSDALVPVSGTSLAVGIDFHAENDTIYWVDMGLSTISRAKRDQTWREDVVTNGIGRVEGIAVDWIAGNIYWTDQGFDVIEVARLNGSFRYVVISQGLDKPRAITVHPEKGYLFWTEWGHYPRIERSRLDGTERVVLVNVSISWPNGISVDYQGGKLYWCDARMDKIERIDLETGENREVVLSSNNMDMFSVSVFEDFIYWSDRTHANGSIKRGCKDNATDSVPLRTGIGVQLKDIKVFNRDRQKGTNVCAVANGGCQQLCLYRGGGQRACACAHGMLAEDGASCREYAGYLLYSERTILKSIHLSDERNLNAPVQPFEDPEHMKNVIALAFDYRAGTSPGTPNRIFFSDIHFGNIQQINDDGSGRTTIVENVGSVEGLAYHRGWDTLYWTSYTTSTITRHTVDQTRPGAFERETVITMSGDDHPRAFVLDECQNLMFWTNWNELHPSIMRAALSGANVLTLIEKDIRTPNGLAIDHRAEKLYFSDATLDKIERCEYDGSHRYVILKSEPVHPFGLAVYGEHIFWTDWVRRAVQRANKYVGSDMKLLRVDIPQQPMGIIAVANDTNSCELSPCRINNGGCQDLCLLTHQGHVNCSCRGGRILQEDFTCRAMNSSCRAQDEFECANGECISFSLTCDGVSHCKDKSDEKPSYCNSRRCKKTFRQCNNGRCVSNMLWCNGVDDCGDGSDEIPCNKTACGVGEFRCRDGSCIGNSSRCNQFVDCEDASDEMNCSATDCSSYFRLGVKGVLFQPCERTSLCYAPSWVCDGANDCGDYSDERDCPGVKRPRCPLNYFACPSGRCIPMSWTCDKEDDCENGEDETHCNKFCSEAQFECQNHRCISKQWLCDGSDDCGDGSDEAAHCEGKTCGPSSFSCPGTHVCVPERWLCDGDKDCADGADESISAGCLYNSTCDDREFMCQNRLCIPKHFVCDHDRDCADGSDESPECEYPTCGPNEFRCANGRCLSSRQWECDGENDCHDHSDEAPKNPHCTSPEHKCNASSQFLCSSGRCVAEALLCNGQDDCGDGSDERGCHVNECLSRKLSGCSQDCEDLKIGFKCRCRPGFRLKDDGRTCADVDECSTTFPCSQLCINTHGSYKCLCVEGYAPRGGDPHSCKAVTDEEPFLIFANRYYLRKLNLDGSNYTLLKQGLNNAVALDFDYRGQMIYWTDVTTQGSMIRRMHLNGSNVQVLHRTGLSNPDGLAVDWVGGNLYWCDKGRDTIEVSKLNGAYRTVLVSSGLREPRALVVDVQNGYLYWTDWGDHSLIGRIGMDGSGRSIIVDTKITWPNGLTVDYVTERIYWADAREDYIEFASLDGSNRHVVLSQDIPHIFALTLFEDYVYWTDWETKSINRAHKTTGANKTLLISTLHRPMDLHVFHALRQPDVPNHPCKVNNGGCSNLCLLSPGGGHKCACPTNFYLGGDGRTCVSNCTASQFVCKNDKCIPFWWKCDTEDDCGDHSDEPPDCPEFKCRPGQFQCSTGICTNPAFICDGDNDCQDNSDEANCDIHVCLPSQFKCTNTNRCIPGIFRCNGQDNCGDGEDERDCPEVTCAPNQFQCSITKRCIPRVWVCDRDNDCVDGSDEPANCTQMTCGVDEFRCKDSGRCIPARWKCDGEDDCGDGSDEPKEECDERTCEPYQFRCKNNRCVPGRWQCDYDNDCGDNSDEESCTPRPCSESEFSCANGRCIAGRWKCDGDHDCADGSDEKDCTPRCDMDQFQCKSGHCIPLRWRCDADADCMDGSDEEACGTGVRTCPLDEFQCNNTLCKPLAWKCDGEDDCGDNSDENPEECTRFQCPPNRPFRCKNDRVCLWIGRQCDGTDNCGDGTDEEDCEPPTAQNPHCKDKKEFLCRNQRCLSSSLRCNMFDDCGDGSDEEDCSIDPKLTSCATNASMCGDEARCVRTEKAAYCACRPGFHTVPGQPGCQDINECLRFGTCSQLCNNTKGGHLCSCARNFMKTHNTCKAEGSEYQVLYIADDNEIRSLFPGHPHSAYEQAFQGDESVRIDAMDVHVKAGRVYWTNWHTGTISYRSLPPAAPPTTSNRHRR
T1 sequence (G3V928 3945-4545 partner limits assumed): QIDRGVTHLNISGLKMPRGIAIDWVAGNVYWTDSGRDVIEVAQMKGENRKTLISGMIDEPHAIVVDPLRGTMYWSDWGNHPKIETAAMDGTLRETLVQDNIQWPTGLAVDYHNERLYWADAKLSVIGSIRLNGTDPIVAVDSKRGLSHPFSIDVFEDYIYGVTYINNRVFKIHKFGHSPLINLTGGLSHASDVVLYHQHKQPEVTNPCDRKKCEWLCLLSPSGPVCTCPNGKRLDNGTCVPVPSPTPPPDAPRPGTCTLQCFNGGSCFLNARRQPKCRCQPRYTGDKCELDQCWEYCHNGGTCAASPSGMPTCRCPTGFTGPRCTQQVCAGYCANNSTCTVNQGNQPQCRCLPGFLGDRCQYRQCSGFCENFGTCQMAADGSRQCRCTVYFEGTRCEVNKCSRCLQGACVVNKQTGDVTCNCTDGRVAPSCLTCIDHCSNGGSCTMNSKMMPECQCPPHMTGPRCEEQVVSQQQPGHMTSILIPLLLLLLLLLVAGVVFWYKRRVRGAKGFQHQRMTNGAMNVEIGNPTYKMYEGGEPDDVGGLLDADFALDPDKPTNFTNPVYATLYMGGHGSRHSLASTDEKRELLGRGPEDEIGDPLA

For “Human MMP-1: human fibroblast collagenase-1 (interstitial collagenase)”, in assay [1], the Specific binding was 0.1 ± 1.4 fmol/2.6 × 10^5 cells. The “percent of mouse collagenase-3 binding, UMR-106-01” value (“percent … UMR-106-01” below) in assay [2] stood at 0%.

In assay [1], “Human MMP-3: human stromelysin-1 (MMP-3)” returned a Specific binding of 0.0 ± 0.0 fmol/2.6 × 10^5 cells.

As to “HM (141-228)/H: chimeric collagenase: mouse MMP-13 residues 141-228 in human MMP-1”, the “percent of mouse collagenase-3 binding, MEF-2 (LRP null)” value (“percent … (LRP null)” below) in assay [3] is recorded as 75.1 ± 13.7%. Further, in assay [1], the “binding to UMR cells (in words)” value is “capable of binding specifically to UMR cells”. For the same substance, the “percent of mouse collagenase-3 binding, MEF 1” value (“percent … MEF 1” below) in assay [4] is 94.3 ± 4.7%. In addition, in assay [2], the “competition efficiency compared to full-length collagenase-3” value amounted to 90% and the “percent … UMR-106-01” value worked out at 89.9 ± 5.3%. In addition, the “endocytosis of iodinated construct compared to full-length collagenase-3 (in words)” value in assay [5] is “significantly reduced endocytosis”.

Consider “MMP-13 (1-265): C-terminally truncated mouse collagenase-3”, for which, in assay [4], the “percent … MEF 1” value is 100%. Moreover, in assay [2], the “competition for 125I mouse collagenase-3 binding (in words)” value is “essentially equivalent manner compared to full-length MMP-13” and the “percent … UMR-106-01” value is recorded as 100%.

In the case of “H/M (229-472): chimeric collagenase: human MMP-1 N-terminus, mouse MMP-13 residues 229-472”, the “percent … MEF 1” value in assay [4] was 2.2 ± 1.1%. In addition, in assay [2], the “competition efficiency compared to full-length collagenase-3” value is listed as under 17% and the “percent … UMR-106-01” value was 16.5 ± 5.8%.

As to “HM (166-228)/H: chimeric collagenase: mouse MMP-13 residues 166-228 in human MMP-1”, the “percent … (LRP null)” value in assay [3] was determined as 97.2 ± 1.7%. The “percent … MEF 1” value in assay [4] was determined as 80.8 ± 6.0%. Moreover, in assay [2], the “competition for 125I mouse collagenase-3 binding (in words)” value was “impaired ability to compete for receptor binding” and the “percent … UMR-106-01” value is reported as 67.8 ± 3.4%.

As for “M (1-228)/H: chimeric collagenase: mouse MMP-13 residues 1-228, remainder human MMP-1”, in assay [3], the “competition for receptor binding in MEF-2 cells (in words)” value is on record as “impaired binding in MEF-2 cells” and the “percent … (LRP null)” value was 41.9 ± 9.7%. Also, the “binding to UMR cells (in words)” value in assay [1] was “capable of binding specifically to UMR cells”. For the same substance, in assay [4], the “percent … MEF 1” value is 85.9 ± 10.5%. For the same substance, in assay [2], the “competition efficiency compared to full-length collagenase-3” value is on record as “greater than 90%” and the “percent … UMR-106-01” value was 85.3 ± 3.0%. In addition, the “endocytosis of iodinated construct compared to full-length collagenase-3 (in words)” value in assay [5] was “significantly reduced endocytosis”.

With “HM/M (141-472): chimeric collagenase: human MMP-1 N-terminus, mouse MMP-13 residues 141-472”, the “competition for receptor binding in MEF-2 cells (in words)” value in assay [3] is on record as “significantly impaired ability to compete for receptor binding”. Moreover, in assay [4], the “percent … MEF 1” value is recorded as 84.4 ± 6.1%. The “percent … UMR-106-01” value in assay [2] is given as 95.7 ± 3.9%.

In the case of “MMP-13 (1-472): recombinant full-length mouse collagenase-3, residues 1-472”, the “Bmax, lower affinity site” value came to 660 pmol/10^5 cells in assay [6] (Scatchard analysis) and 834 pmol/10^5 cells in assay [6] (computer analysis). For the same substance, the entries for the “Bmax, high affinity site” value in assay [7] (Scatchard analysis) and in assay [7] (computer analysis with the GraphPad InPlot program) were 73.9 pmol/10^5 cells and 75 pmol/10^5 cells, respectively. Moreover, the “binding to UMR cells (in words)” value in assay [1] is “binds equally as well as the rat enzyme”; in assay [1] (listed as mMMP-13) it was “specifically and saturably”.
